According to PubChem BioAssay (NCI):
“And” between values parts separate entries of the source, which are not always exact repeats. Equal values may be shown once.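 Values below derive from 48-hour exposures of cells grown in 96-well plates, with endpoints linearly interpolated between the two concentrations bracketing the appropriate inhibition level. GI50 marks 50% less growth. The concentration for full growth arrest is given as TGI.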

Columns and labels:
Assay in all cases: inhibition of tumour cell growth, NCI panel, 48 h
SK-MEL-2 melanoma = tested on: SK-MEL-2 melanoma
RXF 393 renal = tested on: RXF 393 renal
SF-295 CNS = tested on: SF-295 CNS
NCI-H226 lung = tested on: NCI-H226 lung
SR leukemia = tested on: SR leukemia
HCC-2998 colon = tested on: HCC-2998 colon
SK-MEL-28 melanoma = tested on: SK-MEL-28 melanoma
M14 melanoma = tested on: M14 melanoma
SW-620 colon = tested on: SW-620 colon
IGROV1 ovarian = tested on: IGROV1 ovarian

SMILES	GI50 (SK-MEL-2 melanoma)	TGI (SK-MEL-2 melanoma)	GI50 (RXF 393 renal)	TGI (RXF 393 renal)	GI50 (SF-295 CNS)	TGI (SF-295 CNS)	GI50 (NCI-H226 lung)	TGI (NCI-H226 lung)	GI50 (SR leukemia)	TGI (SR leukemia)	GI50 (HCC-2998 colon)	TGI (HCC-2998 colon)	GI50 (SK-MEL-28 melanoma)	TGI (SK-MEL-28 melanoma)	GI50 (M14 melanoma)	TGI (M14 melanoma)	GI50 (SW-620 colon)	TGI (SW-620 colon)	GI50 (IGROV1 ovarian)	TGI (IGROV1 ovarian)
CC1=CC(=O)c2[nH]c3ccccc3c2C1=O	5.37 µM	13.8 µM	3.47 µM	6.74 µM	4.32 µM	7.93 µM	6.54 µM	22.7 µM	5.71 µM	16.7 µM	7.01 µM	24 µM	4.47 µM	7.98 µM	4.21 µM	7.62 µM	3.94 µM	7.65 µM	6.63 µM	17.1 µM
Cn1cc(/C=C2\C(=O)Nc3cccnc32)c2ccccc21	11.6 µM	> 25 µM	10.8 µM	> 25 µM	> 25 µM	> 25 µM	10.8 µM	> 25 µM	> 25 µM	> 25 µM	> 25 µM	> 25 µM	> 25 µM	> 25 µM	9.32 µM	> 25 µM	12.6 µM	> 25 µM	6.82 µM	> 25 µM
O=C1CCCC2COc3ccc(O)c1c32 (configuration not stated)	–	> 100 µM	–	> 100 µM	–	> 100 µM	–	> 100 µM	–	> 100 µM	–	> 100 µM	–	> 100 µM	–	> 100 µM	–	–	–	> 100 µM
Fc1ccc(-c2c(-c3ccncc3)n(CCN3CCOCC3)c3cccnc23)cc1	> 25 µM	> 25 µM	> 25 µM	> 25 µM	> 25 µM	> 25 µM	> 25 µM	> 25 µM	> 25 µM	> 25 µM	> 25 µM	> 25 µM	> 25 µM	> 25 µM	> 25 µM	> 25 µM	> 25 µM	> 25 µM	> 25 µM	> 25 µM
NC(=NC1C2CC3CC(C2)CC1C3)Nc1ccc(I)cc1 (configuration not stated)	2.63 µM	7.62 µM	3.1 µM	13.5 µM	2.51 µM	6.75 µM	5.41 µM	22.2 µM	2.49 µM	6.84 µM	1.77 µM	3.61 µM	2.53 µM	7.58 µM	2.08 µM	5.04 µM	2.64 µM	11.6 µM	3.2 µM	13.5 µM
CCOc1ccc(N2C(N)=NC(N)=NC2(C)C)cc1	> 100 µM	> 100 µM	> 100 µM	> 100 µM	48.1 µM	> 100 µM	> 100 µM	> 100 µM	74.6 µM	> 100 µM	> 100 µM	> 100 µM	53.7 µM	> 100 µM	–	–	37.6 µM	> 100 µM	46.5 µM	> 100 µM
Cc1cc(I)cc(CN(C)CCCCN2CCCC2)c1O	18.2 µM	34.8 µM	11.8 µM	31.8 µM	13.2 µM	28.6 µM	30 µM	> 100 µM	11.5 µM	29.4 µM	18 µM	36.3 µM	13.4 µM	27.8 µM	15.1 µM	29.1 µM	17.2 µM	39.6 µM	24.8 µM	59.1 µM
CCn1cc(C2NC(=O)c3cc(F)ccc3N2)c2cccc(Cl)c21 (configuration not stated)	0.887 µM	> 100 µM	0.149 µM	0.674 µM	0.1 µM	> 58.3 µM	0.664 µM	9.63 µM	0.039 µM	> 100 µM	0.348 µM	> 25.5 µM	0.847 µM	> 100 µM	0.138 µM	> 100 µM	0.193 µM	> 100 µM	0.388 µM	> 100 µM
O=C(O)c1c(Cl)c(Cl)c(Cl)c(Cl)c1-c1c2cc(I)c(=O)c(I)c-2oc2c(I)c(O)c(I)cc12	81.4 µM and 37 µM	78.8 µM	27.5 µM and 15 µM	45.4 µM	38.1 µM	78.7 µM	79.7 µM and 38.8 µM	90.9 µM	39.1 µM and 31.6 µM	87.6 µM	36.5 µM	70.8 µM	55.9 µM and 32.9 µM	73 µM	58.7 µM	> 200 µM	74.4 µM and 37.6 µM	79.1 µM	88.2 µM and 34.9 µM	83.8 µM
O=C1CCCc2c(O)ccc(O)c21	–	> 100 µM	–	> 100 µM	–	> 100 µM	–	> 100 µM	–	91.2 µM	–	> 100 µM	–	> 100 µM	–	> 100 µM	–	> 100 µM	–	> 100 µM
COc1cc(C(=O)c2c(-c3ccccc3)oc3ccccc23)cc(OC)c1O	6.78 µM	29.2 µM	1.76 µM	8.95 µM	2.41 µM	6.94 µM	8.14 µM	37.2 µM	0.377 µM	23.9 µM	5.2 µM	20.4 µM	10.4 µM	25.1 µM	0.58 µM	10.7 µM	0.96 µM	26.9 µM	2.6 µM	18.7 µM
C[C@H]1CC(=O)[C@@]2(O)C#C/C=C\C#C[C@@H]3Nc4c(cc(O)c5c4C(=O)c4ccccc4C5=O)[C@]24O[C@]314	–	–	0.0373 µM	0.0684 µM and 0.242 µM	0.0025 µM	0.0542 µM	0.0025 µM	–	–	0.0426 µM	–	0.0595 µM	0.0409 µM	0.241 µM and 0.729 µM	0.0025 µM	0.0645 µM and 0.0371 µM	0.0059 µM	0.306 µM and 0.337 µM	0.0025 µM	0.452 µM and 0.7 µM
COc1ccc(C2CC(C)=Nc3c([nH]c(=S)[nH]c3=O)N2)cc1 (configuration not stated)	–	> 100 µM	–	34.7 µM	–	48.5 µM	–	44.6 µM	–	65 µM	–	30.3 µM	–	60.5 µM	–	37.4 µM	–	19 µM	–	34.5 µM
CN1C=CN(Cc2ccc(-c3ccccn3)nc2)[CH-]1.CN1C=CN(Cc2ccc(-c3ccccn3)nc2)[CH-]1.[Au+3]	7.05 µM	32.4 µM	1.88 µM	17.8 µM	4.87 µM	> 100 µM	5.65 µM	> 64.2 µM	0.372 µM	42.7 µM	5.47 µM	> 42.7 µM	2.47 µM	14.5 µM	2.82 µM	20.6 µM	0.898 µM	17.2 µM	1.42 µM	10.3 µM
